Assay results taken from patent publication US10421761B2, “Compounds for kinase modulation, and indications therefor” (Plexxikon Inc., priority 2013, dated 2019).
Read-outs that look alike come from different tables or passages of the source.

System: B9 cells

Structure (SMILES): CCCS(=O)(=O)Nc1ccc(F)c(C(=O)c2c[nH]c3ncc(-c4ccc(Cl)cc4)cc23)c1F [vemurafenib]
- probe 1416811_s_at response, Ctla2a /// Ctla2b (cytotoxic T lymphocyte-associated protein 2 alpha /// cytotoxic T lymphocyte-associated protein 2 beta): 1.92
- probe 1452352_at response, Ctla2b (cytotoxic T lymphocyte-associated protein 2 beta): 2.37
- expression of gene probe 1416454_s_at (Acta2) (B9 cells, Repl. 1): 0.23
- expression of gene probe 1416612_at (Cyp1b1) (B9 cells, Repl. 1): 0.19
- expression of gene probe 1418240_at (Gbp2) (B9 cells, Repl. 1): 0.30
- expression of gene probe 1418497_at (Fgf13) (B9 cells, Repl. 1): 0.39
- expression of gene probe 1419089_at (Timp3) (B9 cells, Repl. 1): 0.26
- expression of gene probe 1427183_at (Efemp1) (B9 cells, Repl. 1): 0.30
- expression of gene probe 1427747_a_at (Lcn2) (B9 cells, Repl. 1): 0.36
- expression of gene probe 1435906_x_at (Gbp2) (B9 cells, Repl. 1): 0.21
- expression of gene probe 1438931_s_at (LOC100047324 /// Sesn1) (B9 cells, Repl. 1): 0.35
- expression of gene probe 1438988_x_at (Hn1) (B9 cells, Repl. 1): 0.26
- expression of gene probe 1440147_at (Lgi2) (B9 cells, Repl. 1): 0.34
- expression of gene probe 1448734_at (Cp) (B9 cells, Repl. 1): 0.31
- expression of gene probe 1449227_at (Ch25h) (B9 cells, Repl. 1): 0.25
- expression of gene probe 1449335_at (Timp3) (B9 cells, Repl. 1): 0.24
- expression of gene probe 1449340_at (Sostdc1) (B9 cells, Repl. 1): 0.17
- expression of gene probe 1449815_a_at (Ssbp2) (B9 cells, Repl. 1): 0.38
- expression of gene probe 1450618_a_at (Sprr2a) (B9 cells, Repl. 1): 0.36
- expression of gene probe 1460250_at (Sostdc1) (B9 cells, Repl. 1): 0.23
- expression of gene probe 1416454_s_at (Acta2) (B9 cells, Repl. 2): 0.20
- expression of gene probe 1416612_at (Cyp1b1) (B9 cells, Repl. 2): 0.16
- expression of gene probe 1418240_at (Gbp2) (B9 cells, Repl. 2): 0.28
- expression of gene probe 1418497_at (Fgf13) (B9 cells, Repl. 2): 0.38
- expression of gene probe 1419089_at (Timp3) (B9 cells, Repl. 2): 0.31
- expression of gene probe 1427183_at (Efemp1) (B9 cells, Repl. 2): 0.37
- expression of gene probe 1427747_a_at (Lcn2) (B9 cells, Repl. 2): 0.35
- expression of gene probe 1435906_x_at (Gbp2) (B9 cells, Repl. 2): 0.30
- expression of gene probe 1438931_s_at (LOC100047324 /// Sesn1) (B9 cells, Repl. 2): 0.33
- expression of gene probe 1438988_x_at (Hn1) (B9 cells, Repl. 2): 0.27
- expression of gene probe 1440147_at (Lgi2) (B9 cells, Repl. 2): 0.38
- expression of gene probe 1448734_at (Cp) (B9 cells, Repl. 2): 0.30
- expression of gene probe 1449227_at (Ch25h) (B9 cells, Repl. 2): 0.29
- expression of gene probe 1449335_at (Timp3) (B9 cells, Repl. 2): 0.36
- expression of gene probe 1449340_at (Sostdc1) (B9 cells, Repl. 2): 0.20
- expression of gene probe 1449815_a_at (Ssbp2) (B9 cells, Repl. 2): 0.38
- expression of gene probe 1450618_a_at (Sprr2a) (B9 cells, Repl. 2): 0.41
- expression of gene probe 1460250_at (Sostdc1) (B9 cells, Repl. 2): 0.20
- probe 1415828_a_at response, Serp1 (stress-associated endoplasmic reticulum protein 1) (Repl. 1, B9 cells): 2.05
- probe 1415936_at response, Bcar3 (breast cancer anti-estrogen resistance 3) (Repl. 1, B9 cells): 2.21
- probe 1416129_at response, Errfi1 (ERBB receptor feedback inhibitor 1) (Repl. 1, B9 cells): 3.31
- probe 1416246_a_at response, Coro1a (coronin, actin binding protein 1A) (Repl. 1, B9 cells): 1.90
- probe 1416325_at response, Crisp 1 (cysteine-rich secretory protein 1) (Repl. 1, B9 cells): 5.15
- probe 1416401_at response, Cd82 (CD82 antigen) (Repl. 1, B9 cells): 2.87
- probe 1416488_at response, Ccng2 (cyclin G2) (Repl. 1, B9 cells): 2.23
- probe 1416527_at response, Rab32 (RAB32, member RAS oncogene family) (Repl. 1, B9 cells): 0.42
- probe 1416811_s_at response, Ctla2a /// Ctla2b (cytotoxic T lymphocyte-associated protein 2 alpha /// cytotoxic T lymphocyte-associated protein 2 beta) (Repl. 1, B9 cells): 2.28
- probe 1417065_at response, Egr1 (early growth response 1) (Repl. 1, B9 cells): 4.13
- probe 1417130_s_at response, Angptl4 (angiopoietin-like 4) (Repl. 1, B9 cells): 3.10
- probe 1417328_at response, Ercc1 (excision repair cross-complementing rodent repair deficiency, complementation group 1) (Repl. 1, B9 cells): 2.20
- probe 1417488_at response, Fosl1 (fos-like antigen 1) (Repl. 1, B9 cells): 2.09
- probe 1417494_a_at response, Cp (ceruloplasmin) (Repl. 1, B9 cells): 0.39
- probe 1417495_x_at response, Cp (ceruloplasmin) (Repl. 1, B9 cells): 0.48
- probe 1417533_a_at response, Itgb5 (integrin beta 5) (Repl. 1, B9 cells): 0.50
- probe 1417625_s_at response, Cxcr7 (chemokine (C-X-C motif) receptor 7) (Repl. 1, B9 cells): 2.03
- probe 1417677_at response, Opn3 (opsin 3) (Repl. 1, B9 cells): 2.18
- probe 1417812_a_at response, Lamb3 (laminin, beta 3) (Repl. 1, B9 cells): 2.60
- probe 1417837_at response, Phlda2 (pleckstrin homology-like domain, family A, member 2) (Repl. 1, B9 cells): 2.26
- probe 1417902_at response, Slc19a2 (solute carrier family 19 (thiamine transporter), member 2) (Repl. 1, B9 cells): 2.00
- probe 1417962_s_at response, Ghr (growth hormone receptor) (Repl. 1, B9 cells): 2.19
- probe 1418349_at response, Hbegf (heparin-binding EGF-like growth factor) (Repl. 1, B9 cells): 3.29
- probe 1418350_at response, Hbegf (heparin-binding EGF-like growth factor) (Repl. 1, B9 cells): 2.66
- probe 1418538_at response, Kdelr3 (KDEL (Lys-Asp-Glu-Leu) endoplasmic reticulum protein retention receptor 3) (Repl. 1, B9 cells): 2.08
- probe 1418539_a_at response, Ptpre (protein tyrosine phosphatase, receptor type, E) (Repl. 1, B9 cells): 1.94
- probe 1419149_at response, Serpine1 (serine (or cysteine) peptidase inhibitor, clade E, member 1) (Repl. 1, B9 cells): 2.13
- probe 1419188_s_at response, Ccl27a /// Gm13306 (chemokine (C-C motif) ligand 27A /// predicted gene 13306) (Repl. 1, B9 cells): 2.62
- probe 1419317_x_at response, Lce3c (late cornified envelope 3C) (Repl. 1, B9 cells): 2.53
- probe 1419322_at response, Fgd6 (FYVE, RhoGEF and PH domain containing 6) (Repl. 1, B9 cells): 2.60
- probe 1419529_at response, Il23a (interleukin 23, alpha subunit p19) (Repl. 1, B9 cells): 2.84
- probe 1419671_a_at response, Il17rc (interleukin 17 receptor C) (Repl. 1, B9 cells): 0.49
- probe 1419722_at response, Klk8 (kallikrein related-peptidase 8) (Repl. 1, B9 cells): 2.02
- probe 1419816_s_at response, Errfi1 (ERBB receptor feedback inhibitor 1) (Repl. 1, B9 cells): 3.87
- probe 1420352_at response, Prss22 (protease, serine, 22) (Repl. 1, B9 cells): 3.07
- probe 1420380_at response, Cc12 (chemokine (C-C motif) ligand 2) (Repl. 1, B9 cells): 0.37
- probe 1420407_at response, Ltb4r1 (leukotriene B4 receptor 1) (Repl. 1, B9 cells): 2.29
- probe 1420450_at response, Mmp10 (matrix metallopeptidase 10) (Repl. 1, B9 cells): 3.42
- probe 1420537_at response, Kctd4 (potassium channel tetramerisation domain containing 4) (Repl. 1, B9 cells): 2.36
- probe 1420760_s_at response, Ndrg1 (N-myc downstream regulated gene 1) (Repl. 1, B9 cells): 1.90
- probe 1420913_at response, Slco2a1 (solute carrier organic anion transporter family, member 2a1) (Repl. 1, B9 cells): 1.92
- probe 1420955_at response, Vsnl1 (visinin-like 1) (Repl. 1, B9 cells): 0.38
- probe 1421134_at response, Areg (amphiregulin) (Repl. 1, B9 cells): 4.28
- probe 1421269_at response, Ugcg (UDP-glucose ceramide glucosyltransferase) (Repl. 1, B9 cells): 2.46
- probe 1421279_at response, Lamc2 (laminin, gamma 2) (Repl. 1, B9 cells): 2.23
- probe 1421403_at response, Pi15 (peptidase inhibitor 15) (Repl. 1, B9 cells): 2.04
- probe 1421551_s_at response, Ifi202b (interferon activated gene 202B) (Repl. 1, B9 cells): 3.58
- probe 1421668_x_at response, Speer3 (spermatogenesis associated glutamate (E)-rich protein 3) (Repl. 1, B9 cells): 2.74
- probe 1421679_a_at response, Cdkn1a (cyclin-dependent kinase inhibitor 1A (P21)) (Repl. 1, B9 cells): 4.27
- probe 1421888_x_at response, Aplp2 (amyloid beta (A4) precursor-like protein 2) (Repl. 1, B9 cells): 0.65
- probe 1421943_at response, Tgfa (transforming growth factor alpha) (Repl. 1, B9 cells): 1.93
- probe 1422028_a_at response, Ets1 (E26 avian leukemia oncogene 1, 5′ domain) (Repl. 1, B9 cells): 2.13
- probe 1422101_at response, Tnfrsf23 (tumor necrosis factor receptor superfamily, member 23) (Repl. 1, B9 cells): 2.04
- probe 1422138_at response, Plau (plasminogen activator, urokinase) (Repl. 1, B9 cells): 2.73
- probe 1422139_at response, Plau (plasminogen activator, urokinase) (Repl. 1, B9 cells): 2.45
- probe 1422222_at response, Ivl (involucrin) (Repl. 1, B9 cells): 2.50
- probe 1422240_s_at response, Sprr2h (small proline-rich protein 2H) (Repl. 1, B9 cells): 1.95
- probe 1422273_at response, Mmp1b (matrix metallopeptidase 1b (interstitial collagenase)) (Repl. 1, B9 cells): 3.30
- probe 1422324_a_at response, Pthlh (parathyroid hormone-like peptide) (Repl. 1, B9 cells): 2.11
- probe 1422537_a_at response, Id2 (inhibitor of DNA binding 2) (Repl. 1, B9 cells): 0.53
- probe 1422771_at response, Smad6 (MAD homolog 6 (Drosophila)) (Repl. 1, B9 cells): 0.46
- probe 1422924_at response, Tnfsf9 (tumor necrosis factor (ligand) superfamily, member 9) (Repl. 1, B9 cells): 2.01
- probe 1423017_a_at response, Il1rn (interleukin 1 receptor antagonist) (Repl. 1, B9 cells): 2.63
- probe 1423543_at response, Swap70 (SWA-70 protein) (Repl. 1, B9 cells): 1.88
- probe 1423597_at response, Atp8a1 (ATPase, aminophospholipid transporter (APLT), class I, type 8A, member 1) (Repl. 1, B9 cells): 2.02
- probe 1423635_at response, Bmp2 (bone morphogenetic protein 2) (Repl. 1, B9 cells): 2.41
- probe 1423690_s_at response, Gpsm1 (G-protein signalling modulator 1 (AGS3-like, C. elegans)) (Repl. 1, B9 cells): 3.37
- probe 1423933_a_at response, 1600029D21Rik (RIKEN cDNA 1600029D21 gene) (Repl. 1, B9 cells): 2.06
- probe 1424022_at response, Osgin1 (oxidative stress induced growth inhibitor 1) (Repl. 1, B9 cells): 2.27
- probe 1424090_at response, Sdcbp2 (syndecan binding protein (syntenin) 2) (Repl. 1, B9 cells): 4.08
- probe 1424306_at response, Elovl4 (elongation of very long chain fatty acids (FEN1/Elo2, SUR4/Elo3, yeast)-like 4) (Repl. 1, B9 cells): 2.51
- probe 1424383_at response, Tmem51 (transmembrane protein 51) (Repl. 1, B9 cells): 2.58
- probe 1424471_at response, Rapgef3 (Rap guanine nucleotide exchange factor (GEF) 3) (Repl. 1, B9 cells): 2.18
- probe 1424638_at response, Cdkn1a (cyclin-dependent kinase inhibitor 1A (P21)) (Repl. 1, B9 cells): 2.76
- probe 1424783_a_at response, Ugt1a1 /// Ugt1a10 /// Ugt1a2 /// Ugt1a5 /// Ugt1a6a /// Ugt1a6b /// Ugt1aTc /// Ugt1a9 (UDP glucuronosyltransferase 1 family) (Repl. 1, B9 cells): 0.39
- probe 1425452_s_at response, Fam84a (family with sequence similarity 84, member A) (Repl. 1, B9 cells): 2.41
- probe 1425660_at response, Btbd3 (BTB (POZ) domain containing 3) (Repl. 1, B9 cells): 2.08
- probe 1426037_a_at response, Rgs16 (regulator of G-protein signaling 16) (Repl. 1, B9 cells): 3.19
- probe 1426181_a_at response, I124 (interleukin 24) (Repl. 1, B9 cells): 5.52
- probe 1426260_a_at response, Ugt1a1 /// Ugt1a10 /// Ugt1a2 /// Ugt1a5 /// Ugt1a6a /// Ugt1a6b /// Ugt1aTc /// Ugt1a9 (UDP glucuronosyltransferase 1 family) (Repl. 1, B9 cells): 0.39
